Measurements reported in patent publication EP0233461B2, “4,5,6-Substituted-2-pyrimidinamines” (AMERICAN CYANAMID COMPANY, priority 1986, dated 1987).
Where a name gives a salt, the structure may show the parent alone.

System: human basophils
Experiment: Inhibition of histamine release from immunologically stimulated human basophils
Format: cell-based
Conditions: Homo sapiens, concentration causing 50% inhibition of histamine release, by linear regression; active if IC50 ≦ 48 µM
Description: The blood is allowed to sediment at room temperature in two 50 ml polycarbonate centrifuge tubes until a sharp interface develops between the red cells and plasma (60-90 minutes). The plasma (top) layer from each tube is withdrawn by pipet and transferred to respective 50 ml polycarbonate tubes. The plasma is centrifuged for 8 minutes at 110X G at 4°C. The supernatant is carefully poured off as completely as possible and the cell button is resuspended in 2-3 ml of Tris-A buffer using a siliconized Pasteur pipet. The resuspension is accomplished by drawing the liquid gently in an out of the pipet, with the tip below the liquid until an even suspension of cells is obtained. Sufficient Tris-A buffer is then added to bring the volume in the tube to about 45 ml and the tube is centrifuged at 110X G for 8 minutes at 4°C. The supernatant is poured off and the cell button is resuspended and centrifuged as described above. The supernatant is poured off and the cell button is suspended in 2-3 ml of Tris-ACM buffer to make the final volume sufficient to allow addition to the reaction tubes. Reaction tubes containing anti-IgE or antigens, either alone or with test compound in a total volume of 0.2 ml are prepared and placed in a 37°C bath. The cells are warmed to 37°C and frequently swirled to ensure an even suspension, while 1.0 ml aliquots are added to each reaction tube. The tubes are then incubated for 60 minutes at 37°C, vortexing the tubes gently every 15 minutes to keep the cells evenly suspended. When the reaction is complete, the tubes are centrifuged at 4°C for 10 minutes at 1500 rpm to sediment the cells. […] Blanks and totals are included in each test. The blanks have cells and all reagents except antigen or anti-IgE. The totals contain 0.24 ml of 8% perchloric acid, one ml of cells and 0.2 ml of buffer. All samples are then centrifuged to remove the precipitate protein. […] The automated system consists of the following Technicon Autoanalyzer II components Sampler IV, Dual-Speed Proportioning Pump III, Fluoronephelometer with a narrow pass primary filter 7-60 and a secondary filter 3-74, Recorder, and Digital Printer. The manifold used is the one described by Siraganian vide supra, with the following modifications: the dialyzer is omitted; all pumping tubes pass through a single proportioning pump with large capacity and twice the volume of sample is taken for anaylsis. The automated chemistry consists of the following steps: Extraction from alkaline saline into butanol, back extraction into dilute hydrochloric acid by addition of heptane, reaction of histamine with o-phthaldialdehyde (OPT) at high pH and conversion of the OPT adduct to a stable fluorophore with phosphoric acid. The reaction product is then passed through the fluorometer. The full scale response is adjusted to 50 ng histamine base with a threshold sensitivity of approximately 0.5 ng. The instrument blank (wash) is substracted from the ng histamine of each sample. Then the ng histamine of each sample is divided by the mean of the three totals (cells lysed with perchloric acid) to obtain percent release. Control samples contain antigen but no test compound. Blank (or spontaneous release) samples contain neither antigen nor test compound. The mean of the blanks (three replicates) is subtracted from the percent release for controls and test compounds.

Point of comparison: `Cc1cc(C)cc(Nc2nccc(-c3ccccn3)n2)c1` [N-(3,5-Dimethylphenyl)-4-(2-pyridinyl)-2-pyrimidinamine, sulfate], IC50 600 nM. Against it:
- Cc1cc(C)cc(Nc2nccc(-c3cccnc3)n2)c1 [N-(3,5-Dimethylphenyl)-4-(3-pyridinyl)-2-pyrimidinamine, sulfate] — 5-fold higher, 3000 nM

Same assay, conditions: Homo sapiens, concentration causing 50% inhibition of histamine release, by linear regression; active if IC50 ≦ 48 µM; read-out: IC50

Point of comparison: `Cc1cccc(Nc2nccc(-c3ccccn3)n2)c1` [N-(3-Methylphenyl)-4-(2-pyridinyl)-2-pyrimidinamine], IC50 700 nM. Against it:
- COc1ccc(C)cc1Nc1nccc(-c2ccncc2)n1 [N-(2-Methoxy-5-methylphenyl)-4-(4-pyridinyl)-2-pyrimidinamine] — 9.9-fold higher, 6900 nM
- COc1ccccc1Nc1nccc(-c2cccnc2)n1 [N-(2-Methoxyphenyl)-4-(3-pyridinyl)-2-pyrimidinamine] — 14-fold higher, 9800 nM
- Cc1ccccc1Nc1nccc(-c2ccncc2)n1 [N-(2-Methylphenyl)-4-(4-pyridinyl)-2-pyrimidinamine] — 5.6-fold higher, 3900 nM
- Cc1ccc(Nc2nccc(-c3ccccn3)n2)cc1C [N-(3,4-Dimethylphenyl)-4-(2-pyridinyl)-2-pyrimidinamine] — 8.4-fold higher, 5900 nM
- Cc1cc(C)cc(Nc2nccc(-c3ccco3)n2)c1 [N-(3,5-Dimethylphenyl)-4-(2-furanyl)-2-pyrimidinamine] — the same, 700 nM
- Cc1cc(C)cc(Nc2ncc(C)c(-c3ccco3)n2)c1 [N-(3,5-Dimethylphenyl)-4-(2-furanyl)-5-methyl-2-pyrimidinamine] — not separable, < 24000 nM
- Cc1cc(C)cc(Nc2nccc(-c3cccs3)n2)c1 [N-(3,5-Dimethylphenyl)-4-(2-thienyl)-2-pyrimidinamine] — 6.1-fold higher, 4300 nM
- Cc1cc(C)cc(Nc2nccc(-c3ccncc3)n2)c1 [N-(3,5-Dimethylphenyl)-4-(4-pyridinyl)-2-pyrimidinamine] — 6.3-fold higher, 4400 nM
- Cc1ccc(Nc2nccc(-c3cccnc3)n2)cc1Cl [N-(3-Chloro-4-methylphenyl)-4-(3-pyridinyl)-2-pyrimidinamine] — 13-fold higher, 9300 nM
- Clc1cccc(Nc2nccc(-c3ccccn3)n2)c1 [N-(3-Chlorophenyl)-4-(2-pyridinyl)-2-pyrimidinamine] — 1.9-fold higher, 1300 nM
- Clc1cccc(Nc2nccc(-c3cccnc3)n2)c1 [N-(3-Chlorophenyl)-4-(3-pyridinyl)-2-pyrimidinamine] — 2.1-fold higher, 1500 nM
- Clc1cccc(Nc2nccc(-c3ccncc3)n2)c1 [N-(3-Chlorophenyl)-4-(4-pyridinyl)-2-pyrimidinamine] — 4.4-fold higher, 3100 nM
- CCc1cccc(Nc2nccc(-c3ccco3)n2)c1 [N-(3-Ethylphenyl)-4-(2-furanyl)-2-pyrimidinamine] — 14-fold higher, 9700 nM
- CCc1cccc(Nc2nccc(-c3ccccn3)n2)c1 [N-(3-Ethylphenyl)-4-(2-pyridinyl)-2-pyrimidinamine] — 2-fold higher, 1400 nM
- CCc1cccc(Nc2nccc(-c3cccs3)n2)c1 [N-(3-Ethylphenyl)-4-(2-thienyl)-2-pyrimidinamine] — 69-fold higher, 48000 nM
- CCc1cccc(Nc2nccc(-c3cccnc3)n2)c1 [N-(3-Ethylphenyl)-4-(3-pyridinyl)-2-pyrimidinamine] — 2.4-fold higher, 1700 nM
- CCc1cccc(Nc2nccc(-c3ccsc3)n2)c1 [N-(3-Ethylphenyl)-4-(3-thienyl)-2-pyrimidinamine] — 1.6-fold higher, 1100 nM
- CCc1cccc(Nc2nccc(-c3ccncc3)n2)c1 [N-(3-Ethylphenyl)-4-(4-pyridinyl)-2-pyrimidinamine] — 15-fold higher, 10600 nM
- Fc1cccc(Nc2nccc(-c3ccccn3)n2)c1 [N-(3-Fluorophenyl)-4-(2-pyridinyl)-2-pyrimidinamine] — within 1.5-fold, 900 nM
- Fc1cccc(Nc2nccc(-c3cccnc3)n2)c1 [N-(3-Fluorophenyl)-4-(3-pyridinyl)-2-pyrimidinamine] — 4.7-fold higher, 3300 nM
- Fc1cccc(Nc2nccc(-c3ccncc3)n2)c1 [N-(3-Fluorophenyl)-4-(4-pyridinyl)-2-pyrimidinamine] — the same, 700 nM
- COc1cccc(Nc2nccc(-c3cc(C)oc3C)n2)c1 [N-(3-Methoxyphenyl)-4-(2,5-dimethyl-3-furanyl)-2-pyrimidinamine] — 8.3-fold higher, 5800 nM
- COc1cccc(Nc2nccc(-c3ccccn3)n2)c1 [N-(3-Methoxyphenyl)-4-(2-pyridinyl)-2-pyrimidinamine] — 3.5-fold lower, 200 nM
- COc1cccc(Nc2nccc(-c3cccs3)n2)c1 [N-(3-Methoxyphenyl)-4-(2-thienyl)-2-pyrimidinamine] — within 1.5-fold, 900 nM
- COc1cccc(Nc2nccc(-c3cccnc3)n2)c1 [N-(3-Methoxyphenyl)-4-(3-pyridinyl)-2-pyrimidinamine] — 2.3-fold lower, 300 nM
- COc1cccc(Nc2nccc(-c3ccsc3)n2)c1 [N-(3-Methoxyphenyl)-4-(3-thienyl)-2-pyrimidinamine] — 2.4-fold higher, 1700 nM
- COc1cccc(Nc2nccc(-c3ccncc3)n2)c1 [N-(3-Methoxyphenyl)-4-(4-pyridinyl)-2-pyrimidinamine] — 1.8-fold lower, 400 nM
- COc1cccc(Nc2nccc(-c3ccc(C)o3)n2)c1 [N-(3-Methoxyphenyl)-4-(5-methyl-2-furanyl)-2-pyrimidinamine] — 1.7-fold higher, 1200 nM
- COc1cccc(Nc2nccc(-c3ccc(C)s3)n2)c1 [N-(3-Methoxyphenyl)-4-(5-methyl-2-thienyl)-2-pyrimidinamine] — 3.3-fold higher, 2300 nM
- Cc1cccc(Nc2nccc(-c3cccn3C)n2)c1 [N-(3-Methylphenyl)-4-(1-methyl-1H-pyrrol-2-yl)-2-pyrimidinamine] — 13-fold higher, 9400 nM
- Cc1cccc(Nc2nccc(-c3ccc[nH]3)n2)c1 [N-(3-Methylphenyl)-4-(1H-pyrrol-2-yl)-2-pyrimidinamine] — 16-fold higher, 11100 nM
- Cc1cccc(Nc2nccc(-c3cccs3)n2)c1 [N-(3-Methylphenyl)-4-(2-thienyl)-2-pyrimidinamine] — 2.3-fold lower, 300 nM
- Cc1cccc(Nc2nccc(-c3cccnc3)n2)c1 [N-(3-Methylphenyl)-4-(3-pyridinyl)-2-pyrimidinamine] — 2.1-fold higher, 1500 nM
- Cc1cccc(Nc2nccc(-c3ccsc3)n2)c1 [N-(3-Methylphenyl)-4-(3-thienyl)-2-pyrimidinamine] — 5.4-fold higher, 3800 nM
- Cc1cccc(Nc2nccc(-c3ccncc3)n2)c1 [N-(3-Methylphenyl)-4-(4-pyridinyl)-2-pyrimidinamine] — 13-fold higher, 9400 nM
- Cc1cccc(Nc2nccc(-c3ccnc4ccccc34)n2)c1 [N-(3-Methylphenyl)-4-(4-quinolinyl)-2-pyrimidinamine] — 16-fold higher, 10900 nM
- Cc1cccc(Nc2nccc(-c3ccc(C)s3)n2)c1 [N-(3-Methylphenyl)-4-(5-methyl-2-thienyl)-2-pyrimidinamine] — 2-fold higher, 1400 nM
- Cc1cccc(Nc2nccc(-c3cnccn3)n2)c1 [N-(3-Methylphenyl)-4-pyrazinyl-2-pyrimidinamine] — 7.7-fold higher, 5400 nM
- CC(=O)c1ccc(Nc2nccc(-c3cccnc3)n2)cc1 [N-(4-Acetylphenyl)-4-(3-pyridinyl)-2-pyrimidinamine] — within 1.5-fold, 800 nM
- Brc1ccc(Nc2nccc(-c3cccnc3)n2)cc1 [N-(4-Bromophenyl)-4-(3-pyridinyl)-2-pyrimidinamine] — 3.3-fold higher, 2300 nM
- CCc1ccc(Nc2nccc(-c3cccn3C)n2)cc1 [N-(4-Ethylphenyl)-4-(1-methyl-1H-pyrrol-2-yl)-2-pyrimidinamine] — not separable, < 48000 nM

Same assay, conditions: concentration causing 50% inhibition of histamine release, by linear regression; active if IC50 ≦ 48 µM; phosphate; read-out: IC50

Point of comparison: `Cc1cc(C)cc(Nc2nccc(-c3cccnc3)n2)c1` [N-(3,5-Dimethylphenyl)-4-(3-pyridinyl)-2-pyrimidinamine, phosphate], IC50 3000 nM. Against it:
- Cc1cc(C)cc(Nc2nccc(-c3ccccn3)n2)c1 [N-(3,5-Dimethylphenyl)-4-(2-pyridinyl)-2-pyrimidinamine, phosphate] — 10-fold lower, 300 nM

Same assay, conditions: concentration causing 50% inhibition of histamine release, by linear regression; active if IC50 ≦ 48 µM; read-out: IC50

Point of comparison: `Cc1cc(C)cc(Nc2nccc(-c3cccnc3)n2)c1` [N-(3,5-Dimethylphenyl)-4-(3-pyridinyl)-2-pyrimidinamine], IC50 800 nM. Against it:
- Cc1cc(C)cc(Nc2nccc(-c3ccccn3)n2)c1 [N-(3,5-Dimethylphenyl)-4-(2-pyridinyl)-2-pyrimidinamine] — within 1.5-fold, 1000 nM

Same assay, conditions: concentration causing 50% inhibition of histamine release, by linear regression; active if IC50 ≦ 48 µM; sulfate

With `Cc1cccc(Nc2nccc(-c3cccs3)n2)c1` [N-(3-Methylphenyl)-4-(2-thienyl)-2-pyrimidinamine, sulfate] the IC50 was 3000 nM.
